Assay results as given in the supplement of paper PMC10307832.

Assays:
Experiment in all cases: relative viability (nuclei count vs DMSO), 5 days (fraction); higher = more cells survive
[1] = compound: C1COCCN1CC2=CC(=O)C(=CO2)OCCCCCSC3=C4C=CC(=CC4=NC=C3)C(F)(F)F [EHT 1864] + CC(=O)c1c(C)c2cnc(Nc3ccc(N4CCNCC4)cn3)nc2n(C2CCCC2)c1=O [Palbociclib] (partner 0.5 µM)
Outline: (§1)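 After 5 days of treatment, lung cancer cells in 1536-well plates were fixed and stained in a single step (final 0.05% Triton X-100, 1% formaldehyde, 1 ug/ml Hoechst) and their nuclei counted on 4× images. Treatment had been applied by pin tool the day after seeding as one drug alone or as a fixed anchor-drug dose with five library-drug doses (not always all listed) in √10 steps. Relative viability is the nuclei count of treated wells divided by that of vehicle wells, and values are medians of duplicate plates.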

[2] = compound: C1COCCN1CC2=CC(=O)C(=CO2)OCCCCCSC3=C4C=CC(=CC4=NC=C3)C(F)(F)F [EHT 1864] + Cc1nc(Nc2ncc(C(=O)Nc3c(C)cccc3Cl)s2)cc(N2CCN(CCO)CC2)n1 [Dasatinib] (partner 0.075 µM)
Outline: as §1

[3] = compound: C1COCCN1CC2=CC(=O)C(=CO2)OCCCCCSC3=C4C=CC(=CC4=NC=C3)C(F)(F)F [EHT 1864] + CCNC(=O)c1noc(-c2cc(C(C)C)c(O)cc2O)c1-c1ccc(CN2CCOCC2)cc1 [Luminespib] (partner 0.01 µM)
Outline: as §1

[4] = compound: C1COCCN1CC2=CC(=O)C(=CO2)OCCCCCSC3=C4C=CC(=CC4=NC=C3)C(F)(F)F [EHT 1864] + CC(C)C[C@H](NC(=O)[C@H](Cc1ccccc1)NC(=O)c1cnccn1)B(O)O [Bortezomib] (partner 0.002 µM)
Outline: as §1

| Cell Line | relative viability ([1]; first compound 0.04 µM) | relative viability ([1]; first compound 0.1265 µM) | relative viability ([1]; first compound 0.4 µM) | relative viability ([1]; first compound 1.265 µM) | relative viability ([1]; first compound 4 µM) | relative viability ([2]; first compound 0.04 µM) | relative viability ([2]; first compound 0.1265 µM) | relative viability ([2]; first compound 0.4 µM) | relative viability ([2]; first compound 1.265 µM) | relative viability ([2]; first compound 4 µM) | relative viability ([3]; first compound 0.04 µM) | relative viability ([3]; first compound 0.4 µM) | relative viability ([3]; first compound 1.265 µM) | relative viability ([3]; first compound 4 µM) | relative viability ([4]; first compound 0.04 µM) | relative viability ([4]; first compound 0.1265 µM) | relative viability ([4]; first compound 0.4 µM) | relative viability ([4]; first compound 1.265 µM) | relative viability ([4]; first compound 4 µM) | relative viability ([3]; first compound 0.1265 µM) |
| --- | --- | --- | --- | --- | --- | --- | --- | --- | --- | --- | --- | --- | --- | --- | --- | --- | --- | --- | --- | --- |
| NCI-H2085 | 0.446 | 0.459 | 0.456 | 0.451 | 0.417 | 0.22 | 0.239 | 0.233 | 0.253 | 0.305 | 0.432 | 0.541 | 0.415 | 0.442 | 0.989 | 0.785 | 0.962 | 0.971 | 0.782 | – |
| PC-14 | 0.489 | 0.446 | 0.524 | 0.582 | 0.471 | 0.257 | 0.276 | 0.279 | 0.26 | 0.195 | 0.121 | 0.199 | 0.196 | 0.143 | 0.977 | 0.86 | 0.877 | 0.837 | 0.778 | – |
| NCI-H2342 | 0.487 | 0.485 | 0.505 | 0.554 | 0.551 | 0.317 | 0.307 | 0.315 | 0.309 | 0.306 | 0.669 | 0.744 | 0.702 | 0.759 | – | – | – | – | – | 0.651 |
| A-427 | 0.547 | 0.485 | 0.535 | 0.545 | 0.494 | 0.643 | 0.655 | 0.613 | 0.705 | 0.623 | 0.876 | 0.899 | 0.942 | 0.906 | 1.06 | 1.02 | 0.944 | 0.931 | 0.863 | 0.952 |
| H3255 | 0.298 | 0.322 | 0.306 | 0.31 | 0.312 | 0.437 | 0.391 | 0.346 | 0.344 | 0.343 | 0.895 | 1.01 | 0.917 | 1.07 | 0.697 | 0.6 | 1.11 | 0.784 | 1.03 | 0.799 |
| HCC-44 | 0.985 | 0.999 | 0.94 | 0.899 | 0.918 | – | – | – | – | – | 1.04 | 0.924 | 1.02 | 1.33 | 0.968 | 0.757 | 0.812 | 0.851 | 0.876 | 0.906 |
| NCI-H1734 | 0.411 | 0.314 | 0.337 | 0.337 | 0.356 | 0.497 | – | 0.523 | 0.528 | 0.502 | 0.242 | 0.222 | 0.182 | 0.179 | 1.09 | 0.788 | 0.914 | 0.902 | 0.901 | – |
| NCI-H2228 | 0.881 | 0.634 | 0.642 | – | 0.777 | 0.485 | 0.456 | 0.418 | 0.448 | 0.496 | 0.143 | 0.182 | 0.193 | 0.0861 | 0.935 | 1.13 | 0.984 | 0.904 | 1.11 | 0.145 |
| ABC-1 | 0.629 | 0.631 | 0.692 | 0.687 | 0.577 | 0.504 | – | 0.631 | 0.488 | 0.439 | 0.816 | 0.48 | 0.387 | 0.422 | 0.32 | 0.306 | 0.316 | 0.371 | 0.303 | – |
| COR-L23 | 0.336 | 0.216 | 0.336 | 0.283 | 0.272 | 0.492 | 0.396 | 0.467 | 0.485 | 0.439 | 0.699 | 0.613 | 0.642 | 0.494 | 1.08 | 0.85 | 1.01 | 1.05 | 0.867 | 0.528 |
| NCI-H661 | 0.4 | 0.389 | 0.41 | 0.381 | 0.352 | 0.883 | 0.828 | 0.919 | 0.8 | 0.725 | 0.951 | 0.877 | 0.77 | 0.565 | 0.866 | 0.705 | 0.769 | 0.655 | 0.716 | 0.838 |
| SK-MES-1 | 0.379 | 0.3 | 0.356 | 0.301 | 0.342 | 0.427 | 0.409 | 0.44 | 0.423 | 0.333 | 0.596 | 0.748 | 0.726 | 0.798 | – | – | – | – | – | 0.64 |
| EBC-1 | – | – | – | – | – | – | – | – | – | – | – | – | – | – | 0.56 | 0.524 | 0.505 | 0.509 | 0.541 | – |
| NCI-H596 | – | – | – | – | – | 0.701 | 0.592 | 0.533 | 0.554 | 0.664 | 0.953 | 1.03 | 0.972 | 1.05 | 0.836 | 0.637 | 0.976 | 1.01 | 1.05 | 0.986 |
| NCI-H1793 | 0.242 | 0.281 | 0.315 | 0.28 | 0.373 | 0.307 | – | 0.304 | – | 0.419 | 0.143 | 0.141 | – | 0.178 | – | – | – | – | – | – |
| NCI-H1703 | – | – | – | – | – | – | – | – | – | – | – | – | – | – | 0.253 | 0.427 | 0.363 | 0.307 | 0.315 | – |
| NCI-H2170 | 0.381 | 0.308 | 0.408 | 0.356 | 0.395 | 0.608 | 0.579 | 0.688 | 0.474 | 0.563 | 0.725 | 0.745 | 0.63 | 0.612 | – | – | – | – | – | 0.751 |
| NCI-H1563 | – | – | – | – | – | 0.437 | 0.466 | 0.469 | 0.43 | 0.489 | 0.497 | 0.556 | 0.54 | 0.553 | 0.901 | 0.853 | 0.861 | 0.89 | 0.751 | 0.503 |
| NCI-H1395 | 0.61 | 0.595 | 0.631 | 0.57 | 0.614 | 0.48 | 0.386 | 0.426 | 0.418 | 0.407 | 0.605 | 0.648 | 0.76 | 0.673 | – | – | – | – | – | 0.688 |
| NCI-H358 | 0.14 | 0.117 | 0.133 | 0.135 | 0.124 | 0.215 | 0.145 | 0.17 | 0.174 | 0.186 | 0.302 | 0.313 | 0.469 | 0.414 | – | – | – | – | – | 0.398 |
